Results: publication PMC10222686, “Synthesis and Molecular Docking Studies of Alkoxy- and Imidazole-Substituted Xanthones as α-Amylase and α-Glucosidase Inhibitors” (Molecules, 2023)

What was measured:
α-glucosidase = assay: α-Glucosidase inhibition assay (p-NPG substrate); assay type: biochemical, Saccharomyces cerevisiae; conditions: mean ± SD, n = 4
Protocol: The inhibitory activity of the compounds on α-glucosidase inhibition was quantified according to the method described by Salehi et al., with slight modifications [64]. A reaction was prepared by mixing 20 µL α-glucosidase solution (0.5 unit/mL), 120 µL 0.1 M phosphate buffer (pH 6.9), and 10 µL of the samples at concentrations from 400 µM to 4.0 µM. The solution was incubated in a 96-well microplate at 37 °C for 15 min. The enzymatic reaction was initiated by adding 20 µL of 5 mM p-NPG solution to 0.1 M phosphate buffer (pH 6.9), followed by incubation at 37 °C for 15 min. The reaction was stopped by adding 80 µL of 0.2 M sodium carbonate solution, and absorbance was read at 405 nm in a microplate reader (Epoch®, BioTek Instrument, Winooski, EUA). The reaction system without any test compounds was used as control, whereas the system without α-glucosidase served as blank for correcting background absorbance. The rate of α-glucosidase inhibition exerted by each sample was calculated with Equation (1):(1) % inhibition=Control absorbance−sample absorbance/Control absorbance×100
(§1) All measurements were performed in quadruplicate and the values are expressed as the mean ± standard deviation.

α-amylase = target: T1, α-amylase (Sus scrofa, UniProt P00690); assay: α-Amylase inhibition assay (starch/DNS); assay type: biochemical, porcine; conditions: mean ± SD, n = 4; for inhibition at 100 µM: NI = no inhibition; for IC50: compounds precipitate at 200 µM;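 as to all read-outs here: reducing sugar measured by DNS colour at 540 nm, inhibition relative to enzyme reaction lacking test compound, blank without enzyme subtracted for background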
T1 construct: purchased Sigma-Aldrich; host or cells: porcine pancreas
T1 sequence (P00690 16-511): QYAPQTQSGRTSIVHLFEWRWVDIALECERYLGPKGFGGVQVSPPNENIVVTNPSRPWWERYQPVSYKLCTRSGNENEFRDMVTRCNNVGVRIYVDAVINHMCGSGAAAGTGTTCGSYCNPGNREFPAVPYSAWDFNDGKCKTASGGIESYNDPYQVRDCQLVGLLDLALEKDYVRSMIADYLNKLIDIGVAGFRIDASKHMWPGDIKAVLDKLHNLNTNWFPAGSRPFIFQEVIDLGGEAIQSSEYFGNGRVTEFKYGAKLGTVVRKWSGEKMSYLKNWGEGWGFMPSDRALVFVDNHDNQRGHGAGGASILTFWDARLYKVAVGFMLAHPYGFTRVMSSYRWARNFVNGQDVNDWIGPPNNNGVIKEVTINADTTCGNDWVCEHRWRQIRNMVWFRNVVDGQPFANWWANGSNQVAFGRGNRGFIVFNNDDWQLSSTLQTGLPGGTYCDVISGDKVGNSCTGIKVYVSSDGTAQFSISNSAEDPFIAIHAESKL
Protocol: α-Amylase inhibitory activity was quantified according to the method developed by Chokki et al., with some modifications [65]. […] Finally, 100 µL of 3,5-dinitrosalicylic acid (DNS) was added and heated at 100 °C for 20 min, and absorbance was then read at 540 nm in a microplate reader (Epoch, BioTek®). The reaction system without any test compound was used as the control, and the system without α-amylase served as a blank for correcting background absorbance. The percentage of α-amylase inhibition was calculated for each sample with Equation (2):(2) % inhibition=Control absorbance−sample absorbance/Control absorbance×100
as §1

[1] = DPPH radical scavenging assay; conditions: mean ± SD, n = 4
Protocol: The scavenging of free radicals by the synthesized compounds was assessed based on the previously reported DPPH radical assay, with slight modifications. The reaction mixture consisted of 50 µL of compound in DMSO at various concentrations (from 2.5 mM to 0.2 mM) and 150 µL of DPPH solution at 133.33 µM in absolute ethanol. The reaction components were added at a ratio of 1:3 (v/v). The mixture was incubated at 37 °C for 30 min before absorbance was read at 517 nm using a microplate reader (Epoch, BioTek®). Butylhydroxytoulene (BHT) served as the positive control. Scavenging capacity (%) is expressed as the percentage decrease in DPPH. SC% = [(Acontrol − Atest)/Acontrol] × 100 where Acontrol is absorbance of the DPPH solution (control) and Atest is the absorbance of the solution of DPPH and one of the compounds.

Structure (SMILES)	α-Glucosidase Inhibition (%) at 400 µM (α-glucosidase) [%]	IC50 (α-glucosidase) [µM]	inhibition at 100 µM (α-amylase) [%]	melting point	IC50 (α-amylase) [µM]	% DPPH Scavenging Activity (2.5 mM) [1]
C[C@H]1O[C@H](O[C@H]2[C@H](O)[C@@H](O)[C@@H](O[C@H]3[C@H](O)[C@@H](O)C(O)O[C@@H]3CO)O[C@@H]2CO)[C@H](O)[C@@H](O)[C@@H]1N[C@H]1C=C(CO)[C@@H](O)[C@H](O)[C@H]1O (stereo partly shown) [Acarbose, acarbose, reference compound]	63.18 ± 0.7	–	99.3 ± 0.06	–	–	–
COc1cc2oc3ccccc3c(=O)c2cc1OCCCCBr [Compound 9a, 2-(4-Bromobutoxy)-3-methoxy-9H-xanthen-9-one]	97.8 ± 0.3	40 ± 0.018	62.9 ± 0.2	–	73.5 ± 0.04	19.5 ± 1.22 ^D %
COC(=O)COc1cc2c(=O)c3ccccc3oc2cc1OC [Compound 6a, Methyl 2-((3-methoxy-9-oxo-9H-xanthen-2-yl)oxy)acetate]	99.5 ± 0.2	143.6 ± 0.17	8.7 ± 0.2	139 to 140 °C	> 200	1.7 ± 0.91 ^H,I %
C=CCOc1cc2c(=O)c3ccccc3oc2cc1OC [Compound 6d, 2-(Allyloxy)-3-methoxy-9H-xanthen-9-one]	22.1 ± 1.04	> 400	< 0	150 to 151 °C	–	3.9 ± 0.58 ^H,I %
COc1cc2oc3ccccc3c(=O)c2c2c1OC(C)(C)C=C2 [Compound 8, 5-Methoxy-3,3-dimethylpyrano[3,2-a]xanthen-12(3H)-one]	38.3 ± 0.04	> 400	< 0	–	–	1.9 ± 0.73 ^H,I %
COc1cc2oc3ccccc3c(=O)c2cc1OCCCCn1ccnc1-c1ccccc1 [Compound 10b, 3-Methoxy-2-(4-(2-phenyl-1H-imidazol-1-yl)butoxy)-9H-xanthen-9-one]	90.2 ± 0.21	212.4 ± 0.1	9.7 ± 0.21	132 to 134 °C	> 200	12.2 ± 0.08 ^F,G %
C=CCc1c(OCCCCn2ccnc2)c(OC)cc2oc3ccccc3c(=O)c12 [Compound 10d, 2-(4-(1H-Imidazol-1-yl)butoxy)-1-allyl-3-methoxy-9H-xanthen-9-one]	2.5 ± 0.01	> 400	< 0	–	–	5.1 ± 0.08 ^H %
COc1cc2oc3ccccc3c(=O)c2cc1OCCCCn1ccnc1 [Compound 10a, 2-(4-(1H-imidazol-1-yl)butoxy)-3-methoxy-9H-xanthen-9-one]	1.3 ± 0.01	> 400	< 0	137 to 138 °C	–	0.8 ± 0.01 ^I %
COc1cc2oc3ccccc3c(=O)c2cc1OCC(C)=O [Compound 6b, 3-Methoxy-2-(2-oxopropoxy)-9H-xanthen-9-one]	9.3 ± 0.1	> 400	–	144 to 145 °C	–	11.8 ± 1.07 ^F,G %
COc1cc2oc3ccccc3c(=O)c2cc1O [Compound 1, 2-Hydroxy-3-methoxy-9H-xanthen-9-one]	26.5 ± 0.81	> 400	98.7 ± 0.11	–	26.5 ± 0.01	–
C=CCc1c(O)c(OC)cc2oc3ccccc3c(=O)c12 [Compound 7, 1-Allyl-2-hydroxy-3-methoxy-9H-xanthen-9-one]	75.5 ± 0.50	196.4 ± 0.07	7.8 ± 0.1	–	> 200	45.9 ± 2.89 ^B† %
COC(=O)/C(=C/N(C)C)Oc1cc2c(=O)c3ccccc3oc2cc1OC [Compound 5, Methyl (Z)-3-(dimethylamino)-2-((3-methoxy-9-oxo-9H-xanthen-2-yl)oxy)acrylate]	15.2 ± 0.16	> 400	< 0	–	–	13.9 ± 1.14 ^E,F %
C=CCc1c(OCC(=O)c2ccc(Cl)cc2)c(OC)cc2oc3ccccc3c(=O)c12 [Compound 6e, 1-Allyl-2-(2-(4-chlorophenyl)-2-oxoethoxy)-3-methoxy-9H-xanthen-9-one]	98.6 ± 0.90	12.8 ± 0.01	60.3 ± 0.1	–	68.1 ± 0.04	10.4 ± 0.83 ^F,G %
Cc1cc(C(C)(C)C)c(O)c(C(C)(C)C)c1 [BHT, butylhydroxytoluene, reference compound]	–	–	–	–	–	85.2 ± 3.33 ^A‡ %
C=CCc1c(OCCCCn2ccnc2-c2ccc(Cl)cc2)c(OC)cc2oc3ccccc3c(=O)c12 [Compound 10f, 1-Allyl-2-(4-(2-(4-chlorophenyl)-1H-imidazol-1-yl)butoxy)-3-methoxy-9H-xanthen-9-one]	99.4 ± 0.51	145.2 ± 0.17	93.3 ± 0.12	90 to 92 °C	8.7 ± 0.06	11.2 ± 1.02 ^F,G %

Second part, led by results:

α-Glucosidase Inhibition (%) at 400 µM (α-glucosidase) [%]	IC50 (α-glucosidase) [µM]	inhibition at 100 µM (α-amylase) [%]	melting point	IC50 (α-amylase) [µM]	Structure (SMILES)	% DPPH Scavenging Activity (2.5 mM) [1]
1.87 ± 0.47	> 400	< 0	146 to 148 °C	–	COc1cc2oc3ccccc3c(=O)c2cc1OCC(O)Cn1ccnc1 (stereo not shown) [Compound 12a, 2-(2-Hydroxy-3-(1H-imidazol-1-yl)propoxy)-3-methoxy-9H-xanthen-9-one]	1.1 ± 0.01 ^I %
52.2 ± 0.87	400.2 ± 0.24	1.5 ± 0.1	187 to 189 °C	> 200	C=CCc1c(OCC(O)Cn2ccnc2)c(OC)cc2oc3ccccc3c(=O)c12 (stereo not shown) [Compound 12d, 1-Allyl-2-(2-hydroxy-3-(1H-imidazol-1-yl)propoxy)-3-methoxy-9H-xanthen-9-one]	10.1 ± 0.87 ^G %
84.9 ± 0.57	112.8 ± 0.12	8.7 ± 0.81	157 to 159 °C	> 200	COc1cc2oc3ccccc3c(=O)c2cc1OCC(O)Cn1ccnc1-c1ccccc1 (stereo not shown) [Compound 12b, 2-(2-Hydroxy-3-(2-phenyl-1H-imidazol-1-yl)propoxy)-3-methoxy-9H-xanthen-9-one]	16.3 ± 1.45 ^D,E %
0.48 ± 0.02	> 400	< 0	143 to 144 °C	–	COc1cc2oc3ccccc3c(=O)c2cc1OCC1CO1 (stereo not shown) [Compound 11a, 3-Methoxy-2-(oxiran-2-ylmethoxy)-9H-xanthen-9-one]	19.8 ± 1.04 ^D %
99.7 ± 0.29	120 ± 0.03	7.8 ± 0.5	115 to 116 °C	> 200	C=CCc1c(OCC2CO2)c(OC)cc2oc3ccccc3c(=O)c12 (stereo not shown) [Compound 11b, 1-Allyl-3-methoxy-2-(oxiran-2-ylmethoxy)-9H-xanthen-9-one]	18.4 ± 1.43 ^D %
97.5 ± 1.78	210.9 ± 0.33	3.9 ± 0.55	235 °C (dec.)	> 200	COc1cc2oc3ccccc3c(=O)c2cc1OCC(O)Cn1ccnc1-c1ccc(Cl)cc1 (stereo not shown) [Compound 12c, 2-(3-(2-(4-Chlorophenyl)-1H-imidazol-1-yl)-2-hydroxypropoxy)-3-methoxy-9H-xanthen-9-one]	19.0 ± 0.22 ^D %
99.1 ± 1.31	71.9 ± 0.08	4.7 ± 0.32	116 to 118 °C	> 200	C=CCc1c(OCC(O)Cn2ccnc2-c2ccc(Cl)cc2)c(OC)cc2oc3ccccc3c(=O)c12 (stereo not shown) [Compound 12f, 1-Allyl-2-(3-(2-(4-chlorophenyl)-1H-imidazol-1-yl)-2-hydroxypropoxy)-3-methoxy-9H-xanthen-9-one]	18.1 ± 1.57 ^D %
96.6 ± 1.45	104.9 ± 0.01	2.4 ± 0.15	187 to 189 °C	> 200	C=CCc1c(OCC(O)Cn2ccnc2-c2ccccc2)c(OC)cc2oc3ccccc3c(=O)c12 (stereo not shown) [Compound 12e, 1-Allyl-2-(2-hydroxy-3-(2-phenyl-1H-imidazol-1-yl)propoxy)-3-methoxy-9H-xanthen-9-one]	17.6 ± 1.14 ^D %
